Measurements taken from patent US8940291B2 (priority 2009, dated 2015).
“Also recorded” adds a separate entry of the source. Read-outs that look alike come from different tables or passages of the source.

Columns and labels:
VSVΔ51-induced genes = assay type: cell-based, mouse
B16 melanoma cells = test: Cell cycle analysis in B16 melanoma cells (propidium iodine, flow cytometry); assay type: cell-based, mouse; settings: over 48 hours
CT26 cells = assay type: cell-based, mouse; settings: 48 h
VSVΔ51 [1] = assay type: cell-based, Vesicular stomatitis virus
VSVΔ51 [2] = assay type: cell-based, Vesicular stomatitis virus; remark: listed apart in the source
VSVΔ51 [3] = assay type: cell-based, Vesicular stomatitis virus; settings: 40 h
[4] = test system: oncolytic vaccinia virus (VVdd); assay type: cell-based; settings: 20 μM; 72 h
wild type VSV = assay type: cell-based, Vesicular stomatitis virus
[5] = test system: IFN mediated antiviral state in U251 cells; assay type: cell-based, human
4T1 cells = assay type: cell-based, mouse; settings: 48 h
VSVΔ51 [6] = assay type: cell-based, Vesicular stomatitis virus; remark: listed apart in the source
ISRE-luciferase reporter = assay type: cell-based, human
wild type VSV (wtVSV) = assay type: cell-based, Vesicular stomatitis virus
VSVΔ51 [7] = assay type: cell-based, Vesicular stomatitis virus; remark: listed apart in the source
VSVΔ51 [8] = assay type: cell-based, Vesicular stomatitis virus; remark: listed apart in the source
VSVΔ51 [9] = assay type: cell-based, Vesicular stomatitis virus; remark: listed apart in the source
VSVΔ51 [10] = assay type: cell-based, Vesicular stomatitis virus; settings: 48 hours
[11] = test system: IFN responsive U251 cells; assay type: cell-based, human
[12] = 4 h pre-treatment, with and without VSVΔ51

CCCSc1ccc2nc(NC(=O)OC)[nH]c2c1 [Albendazole]
VSV-induced cytotoxicity (VSV/CTRL kill ratio) (4T1 and CT26 cells; [12]): enhance VSV-induced cytotoxicity

COC(=O)Nc1nc2ccc(C(=O)c3cccs3)cc2[nH]1 [Nocodazole]
VSV-induced cytotoxicity (VSV/CTRL kill ratio) (4T1 and CT26 cells; [12]): enhance VSV-induced cytotoxicity

O=C(CCCCCCC(=O)Nc1ccccc1)NO [SAHA, reference compound]
share of VSVΔ51-induced cellular genes whose induction is reduced (VSVΔ51-induced genes): 79%

CC(/C=C/C(=O)NO)=C\[C@@H](C)C(=O)c1ccc(N(C)C)cc1 [TSA, reference compound]
cell cycle distribution (B16 melanoma cells): blocks the cell cycle in G1

O=C1OC(c2ccccc2)C(Cl)=C1Cl (stereo not shown) [VSe1, 3,4-dichloro-5-phenyl-2,5-dihydrofuran-2-one]
cell killing in combination with VSVΔ51 (combination index) (CT26 cells): synergistic cell killing
share of VSVΔ51-induced cellular genes whose induction is reduced (VSVΔ51-induced genes): over 96%
increase in viral titer (VSVΔ51 [1]): 1000 fold
replication of VSVΔ51 in normal tissues (VSVΔ51 [2]): did not increase the replication
interferon protection from VSVΔ51 infection (VSVΔ51 [3]): partially overcome
VVdd spread and viral output [4]: able to enhance the spread and replication; also recorded: enhanced spread and viral output; also recorded: enhances spread
growth of VSV with a wild type M gene (wild type VSV): minimal ability to enhance the growth
sensitivity of IFN-protected cells to VSVΔ51 [5]: partially re-sensitized to VSVΔ51; also recorded: can overcome pre-existing IFN mediated antiviral state
cell killing in combination with VSVΔ51 (combination index) (4T1 cells): synergistic cell killing
cell cycle distribution (B16 melanoma cells; listed as DCPDF): cells ultimately accumulate in G1; also recorded: block in G1
differential in replication between normal and cancerous tissues (VSVΔ51 [6]): roughly 1000 fold
growth of VSVΔ51 in tumour tissue (VSVΔ51 [6]): over 100 fold
VSVΔ51-GFP growth and spread (green fluorescence) (VSVΔ51 [6]; 40 μM): significantly enhanced
interferon dependent transcription (luciferase) (ISRE-luciferase reporter): blunted

CCC1=C[C@@H]2CN(C1)Cc1c([nH]c3ccccc13)[C@@](C(=O)OC)(c1cc3c(cc1OC)N(C)[C@H]1[C@@](O)(C(=O)OC)[C@H](OC(C)=O)[C@]4(CC)C=CCN5CC[C@]31[C@@H]54)C2 [Vinorelbine base, Vinorelbine Base]
VSV-induced cytotoxicity (VSV/CTRL kill ratio) (4T1 and CT26 cells; [12]): enhance VSV-induced cytotoxicity

COc1cc2c(c(OC)c1OC)-c1ccc(OC)c(=O)cc1[C@@H](NC(C)=O)CC2 [colchicine]
number of GFP positive cells with wtVSV (wild type VSV (wtVSV)): appeared to decrease the number of GFP positive cells
VSVΔ51 spread (VSVΔ51 [7]): enhanced spread of VSVΔ51
enhancement of VSVΔ51 spread (VSVΔ51 [8]): not observed in normal MRC-5 cells
VSV-induced cytotoxicity (VSV/CTRL kill ratio) (4T1 and CT26 cells): enhance VSV-induced cytotoxicity
enhancement of virus production (maximum) (VSVΔ51 [9]): ~1000 fold
lowest dose with strong enhancement of VSVΔ51 (GFP) spread (VSVΔ51 [10]): 80 nM
VSV oncolysis [11]: enhanced VSV oncolysis
ability to overcome IFN-induced antiviral effects [11]: could not overcome IFN-induced antiviral effects

Parbendazole
VSV-induced cytotoxicity (VSV/CTRL kill ratio) (4T1 and CT26 cells; [12]): enhance VSV-induced cytotoxicity
